What was measured:
[1] = Acute toxicity in mice (intravenous LD50); conditions: mouse, in vivo, read-out: acute toxicity (LD₅₀, intravenous)
Procedure: It is to be noted that the acute toxicity of the S-compound in mice (LD₅₀, intravenous) is 244 mg/kg.

[2] = Storage stability of aqueous solution (residual concentration); assay type: physicochemical; conditions: 0.5 w/v% aqueous solution, pH range of 3 to 10, stored at 60°C for 1 or 2 weeks

SMILES: C[C@H]1COc2c(N3CCN(C)CC3)c(F)cc3c(=O)c(C(=O)O)cn1c23 [S-compound, S-(-)-9-fluoro-3-methyl-10-(4-methyl-1-piperazinyl)-7-oxo-2,3-dihydro-7H-pyrido[1,2,3-de][1,4]benzoxazine-6-carboxylic acid]
- LD50 [1]: 244 mg/kg
- residual concentrations [2]: stably remained without decomposition
